Measured values from patent US20260015360A1 (MOMA Therapeutics, Inc., priority 2023, published 2026).
Like-named read-outs stand apart in the source and are kept apart here.

Legend:
[1] = tested on: DLD1 WT cells; experiment: DLD1 viability assay (CellTiter-Glo, 7 days), DLD1 WT; format: cell-based
[2] = molecular target: T1, biotinylated Avi-POLΘ[2-894] (Homo sapiens, UniProt O75417); experiment: ATPase assay (ADP-Glo): POLΘ-mediated ATP hydrolysis; settings: read-out: Biochemical ATPase ADPGlo IC50
T1 construct: 1 nM biotinylated Avi-POLΘ[2-894]
T1 sequence (O75417 2-894 limits assumed): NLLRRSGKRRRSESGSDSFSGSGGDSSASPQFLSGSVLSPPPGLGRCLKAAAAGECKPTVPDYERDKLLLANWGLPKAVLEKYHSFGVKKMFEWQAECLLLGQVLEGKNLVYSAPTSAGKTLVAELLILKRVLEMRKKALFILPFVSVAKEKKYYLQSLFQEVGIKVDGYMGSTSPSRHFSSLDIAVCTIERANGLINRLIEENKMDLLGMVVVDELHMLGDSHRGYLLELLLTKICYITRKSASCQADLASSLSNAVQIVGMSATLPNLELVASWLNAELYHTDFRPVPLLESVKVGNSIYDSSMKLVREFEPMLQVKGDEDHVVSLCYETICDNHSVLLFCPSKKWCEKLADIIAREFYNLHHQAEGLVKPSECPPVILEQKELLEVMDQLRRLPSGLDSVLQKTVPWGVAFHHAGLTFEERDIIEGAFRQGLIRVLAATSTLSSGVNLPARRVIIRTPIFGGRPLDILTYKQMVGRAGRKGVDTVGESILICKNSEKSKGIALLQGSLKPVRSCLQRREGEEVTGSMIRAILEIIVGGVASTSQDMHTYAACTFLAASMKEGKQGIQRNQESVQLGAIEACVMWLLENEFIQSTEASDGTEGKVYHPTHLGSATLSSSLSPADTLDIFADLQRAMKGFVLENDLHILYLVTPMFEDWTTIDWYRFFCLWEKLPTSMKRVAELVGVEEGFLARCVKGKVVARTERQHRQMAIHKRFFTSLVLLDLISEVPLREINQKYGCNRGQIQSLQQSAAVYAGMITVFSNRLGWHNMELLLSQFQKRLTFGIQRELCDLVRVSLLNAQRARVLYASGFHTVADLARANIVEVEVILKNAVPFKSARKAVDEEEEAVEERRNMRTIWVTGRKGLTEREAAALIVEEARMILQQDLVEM

[3] = tested on: DLD1 BRCA2 (−/−) cells; experiment: DLD1 viability assay (CellTiter-Glo, 7 days), DLD1 BRCA2 (−/−); format: cell-based; settings: read-out: Viability IC50 (μM) DLD1 BRCA2 null

| SMILES | IC50 ([1]; Homo sapiens, DLD-1, 168 h) [µM] | IC50 [2] [nM] | IC50 ([3]; Homo sapiens, DLD-1, 168 h) [µM] | IC50 [1] [µM] | IC50 [3] [µM] |
| --- | --- | --- | --- | --- | --- |
| COc1cnc(Cl)cc1-c1cc(C)ncc1C(=O)Nc1nc2ncc(N3CCO[C@H]4CCC[C@H]43)nc2s1 [Example 397, 2′-chloro-N-(6-((4aR,7aS)-hexahydrocyclopenta[b][1,4]oxazin-4(4aH)-yl)thiazolo[4,5-b]pyrazin-2-yl)-5′-methoxy-6-methyl-[4,4′-bipyridine]-3-carboxamide] | > 10 | 1 to 15 | 0.001 to 0.1 | – | – |
| COc1cnc(Cl)cc1-c1cc(C)ncc1C(=O)Nc1nc2ncc([C@H]3CC4CC3C[C@@H]4C#N)nc2s1 (single isomer, unassigned) [Example 361B, 2′-chloro-N-(6-((2S or R,5S or R)-5-cyanobicyclo[2.2.1]heptan-2-yl)thiazolo[4,5-b]pyrazin-2-yl)-5′-methoxy-6-methyl-[4,4′-bipyridine]-3-carboxamide] | > 10 | 1 to 15 | 0.001 to 0.1 | – | – |
| COc1cnc(Cl)cc1-c1cc(C)ncc1C(=O)Nc1nc2ncc([C@@H]3CC[C@@H](CO)C3)nc2s1 (single isomer, unassigned) [Example 498, 2′-chloro-N-(6-((1R or S,3R and S)-3-(hydroxymethyl)cyclopentyl)thiazolo[4,5-b]pyrazin-2-yl)-5′-methoxy-6-methyl-[4,4′-bipyridine]-3-carboxamide] | > 10 | 1 to 15 | 0.001 to 0.1 | – | – |
| COc1cnc(Cl)cc1-c1cc(C)ncc1C(=O)Nc1nc2ncc(N3CCC(OC(F)F)CC3)nc2s1 [Example 502, 2′-chloro-N-(6-(4-(difluoromethoxy)piperidin-1-yl)thiazolo[4,5-b]pyrazin-2-yl)-5′-methoxy-6-methyl-[4,4′-bipyridine]-3-carboxamide] | > 10 | 1 to 15 | 0.001 to 0.1 | – | – |
| COc1cnc(Cl)cc1-c1cc(C)ncc1C(=O)Nc1nc2ncc([C@H]3CC4CC3C[C@H]4C#N)nc2s1 (single isomer, unassigned) [Example 361D, 2′-chloro-N-(6-((2S or R,5R or S)-5-cyanobicyclo[2.2.1]heptan-2-yl)thiazolo[4,5-b]pyrazin-2-yl)-5′-methoxy-6-methyl-[4,4′-bipyridine]-3-carboxamide] | > 10 | 1 to 15 | 0.001 to 0.1 | – | – |
| COc1cnc(Cl)cc1-c1cc(C)ncc1C(=O)Nc1nn2cc(C(=O)N[C@H]3CCCC[C@@H]3O)nc2s1 (racemic) [Example 281] | > 10 | 1 to 15 | > 2 | – | – |
| COc1cnc(Cl)cc1-c1cc(C)ncc1C(=O)Nc1nn2cc(C(=O)N[C@H]3CC[C@H](O)C3)nc2s1 [Example 21] | – | 1 to 15 | – | > 10 | 0.5 to 2 |
| COc1cnc(Cl)cc1-c1cc(C)ncc1C(=O)Nc1nc2ncc(N3CCC(OC)CC3)nc2s1 [Example 514, 2′-chloro-5′-methoxy-N-(6-(4-methoxypiperidin-1-yl)thiazolo[4,5-b]pyrazin-2-yl)-6-methyl-[4,4′-bipyridine]-3-carboxamide] | > 10 | 1 to 15 | 0.001 to 0.1 | – | – |
| COc1cnc(Cl)cc1-c1cc(C)ncc1C(=O)Nc1nc2ncc(N3CCC(CO)CC3)nc2s1 [Example 506, 2′-chloro-N-(6-(4-(hydroxymethyl)piperidin-1-yl)thiazolo[4,5-b]pyrazin-2-yl)-5′-methoxy-6-methyl-[4,4′-bipyridine]-3-carboxamide] | > 10 | 1 to 15 | 0.001 to 0.1 | – | – |
| COc1cnc(Cl)cc1-c1cc(C)ncc1C(=O)Nc1nc2ncc(C3CC4CC3CC4C#N)nc2s1 (single isomer, unassigned) [Example 361, 2′-chloro-N-(6-(5-cyanobicyclo[2.2.1]heptan-2-yl)thiazolo[4,5-b]pyrazin-2-yl)-5′-methoxy-6-methyl-[4,4′-bipyridine]-3-carboxamide] | > 10 | 1 to 15 | 0.001 to 0.1 | – | – |
| COc1cnc(Cl)cc1-c1cc(C)ncc1C(=O)Nc1nc2ncc([C@@H]3CC[C@H](CO)C3)nc2s1 [Example 499, 2′-chloro-N-(6-((1R,3S)-3-(hydroxymethyl)cyclopentyl)thiazolo[4,5-b]pyrazin-2-yl)-5′-methoxy-6-methyl-[4,4′-bipyridine]-3-carboxamide] | > 10 | 1 to 15 | 0.1 to 0.25 | – | – |
| COc1cnc(Cl)cc1-c1cc(C)ncc1C(=O)Nc1nc2ncc(N3CCC(O)(C(F)F)CC3)nc2s1 [Example 504, 2′-chloro-N-(6-(4-(difluoromethyl)-4-hydroxypiperidin-1-yl)thiazolo[4,5-b]pyrazin-2-yl)-5′-methoxy-6-methyl-[4,4′-bipyridine]-3-carboxamide] | > 10 | 1 to 15 | 0.001 to 0.1 | – | – |
| COc1cnc(Cl)cc1-c1cc(C)ncc1C(=O)Nc1nc2ncc([C@@H]3CC4CC3C[C@@H]4C#N)nc2s1 (single isomer, unassigned) [Example 361C, 2′-chloro-N-(6-((2R or S,5S or R)-5-cyanobicyclo[2.2.1]heptan-2-yl)thiazolo[4,5-b]pyrazin-2-yl)-5′-methoxy-6-methyl-[4,4′-bipyridine]-3-carboxamide] | > 10 | 1 to 15 | 0.001 to 0.1 | – | – |
| COc1nc2c(cc1-c1cc(C)ncc1C(=O)Nc1nc3ncc(-c4ccncc4)nc3s1)OCCN2C [Example 507, 4-(6-methoxy-4-methyl-3,4-dihydro-2H-pyrido[3,2-b][1,4]oxazin-7-yl)-6-methyl-N-(6-(pyridin-4-yl)thiazolo[4,5-b]pyrazin-2-yl)nicotinamide] | > 10 | 1 to 15 | 0.1 to 0.25 | – | – |
| COc1cnc(Cl)cc1-c1cc(C)ncc1C(=O)Nc1nn2cc(C(=O)NC3CCC3)nc2s1 (racemic) [Example 288] | > 10 | 1 to 15 | 0.25 to 0.5 | – | – |
| COc1cnc(Cl)cc1-c1cc(C)ncc1C(=O)Nc1nc2ncc(C3CCOC3)nc2s1 (racemic) [Example 510, (Racemic)-2′-chloro-5′-methoxy-6-methyl-N-(6-(tetrahydrofuran-3-yl)thiazolo[4,5-b]pyrazin-2-yl)-[4,4′-bipyridine]-3-carboxamide] | > 10 | 1 to 15 | 0.1 to 0.25 | – | – |
| COc1ccccc1-c1cc(C)ncc1C(=O)Nc1nc2ccc(-c3ccccn3)cc2s1 [Example 121, 4-(2-methoxyphenyl)-6-methyl-N-(6-(pyridin-2-yl)benzo[d]thiazol-2-yl)nicotinamide] | 0.001 to 2.5 | 50 to 150 | 0.5 to 2 | – | – |
| COc1cnc(Cl)cc1-c1cc(C)ncc1C(=O)Nc1nn2cc(C(=O)N[C@H]3CCOC3)nc2s1 [Example 291, (S)-2-(2′-chloro-5′-methoxy-6-methyl-[4,4′-bipyridine]-3-carboxamido)-N-(tetrahydrofuran-3-yl)imidazo[2,1-b][1,3,4]thiadiazole-6-carboxamide] | > 10 | 1 to 15 | > 2 | – | – |
| COc1cnc(Cl)cc1-c1cc(C)ncc1C(=O)Nc1nc2ncc(C34CCC(C#N)(CC3)CC4)nc2s1 (single isomer, unassigned) [Example 359, 2′-chloro-N-(6-(4-cyanobicyclo[2.2.2]octan-1-yl)thiazolo[4,5-b]pyrazin-2-yl)-5′-methoxy-6-methyl-[4,4′-bipyridine]-3-carboxamide] | > 10 | 1 to 15 | 0.001 to 0.1 | – | – |
| COc1cnc(Cl)cc1-c1cc(C)ncc1C(=O)Nc1nc2ncc(C3CCOCC3)nc2s1 [Example 512, 2′-chloro-5′-methoxy-6-methyl-N-(6-(tetrahydro-2H-pyran-4-yl)thiazolo[4,5-b]pyrazin-2-yl)-[4,4′-bipyridine]-3-carboxamide] | > 10 | 1 to 15 | 0.001 to 0.1 | – | – |
| COc1cnc(Cl)cc1-c1cc(C)ncc1C(=O)Nc1nc2ncc(C34CC(C#N)(C3)C4)nc2s1 (single isomer, unassigned) [Example 360, 2′-chloro-N-(6-(3-cyanobicyclo[1.1.1]pentan-1-yl)thiazolo[4,5-b]pyrazin-2-yl)-5′-methoxy-6-methyl-[4,4′-bipyridine]-3-carboxamide] | > 10 | 1 to 15 | 0.001 to 0.1 | – | – |
| COc1cnc(Cl)cc1-c1cc(C)ncc1C(=O)Nc1nc2ncc([C@@H]3CC4CC3C[C@H]4C#N)nc2s1 (single isomer, unassigned) [Example 361A, 2′-chloro-N-(6-((2R or S,5R or S)-5-cyanobicyclo[2.2.1]heptan-2-yl)thiazolo[4,5-b]pyrazin-2-yl)-5′-methoxy-6-methyl-[4,4′-bipyridine]-3-carboxamide] | > 10 | 1 to 15 | 0.001 to 0.1 | – | – |
| CNC1CCN(c2cnc3nc(NC(=O)c4cnc(C)cc4-c4cc(Cl)ncc4OC)sc3n2)CC1 [Example 477, 2′-chloro-5′-methoxy-6-methyl-N-(6-(4-(methylamino)piperidin-1-yl)thiazolo[4,5-b]pyrazin-2-yl)-[4,4′-bipyridine]-3-carboxamide] | – | 15 to 50 | – | – | – |
| COc1cnc(Cl)cc1-c1cc(C)ncc1C(=O)Nc1nc2ncc(N3CCOC[C@@H]3C(F)(F)F)nc2s1 [Example 414, (R)-2′-chloro-5′-methoxy-6-methyl-N-(6-(3-(trifluoromethyl)morpholino)thiazolo[4,5-b]pyrazin-2-yl)-[4,4′-bipyridine]-3-carboxamide] | – | 15 to 50 | – | – | – |
| COc1cnc(Cl)cc1-c1cc(C)ncc1C(=O)Nc1nn2cc(C3CCCCC3)nc2s1 [Example 315] | – | 1 to 15 | – | – | – |
| COc1cnc(Cl)cc1-c1cc(C)ncc1C(=O)Nc1nc2ncc(N3CC(O)C3)nc2s1 [Example 503, 2′-chloro-N-(6-(3-hydroxyazetidin-1-yl)thiazolo[4,5-b]pyrazin-2-yl)-5′-methoxy-6-methyl-[4,4′-bipyridine]-3-carboxamide] | – | 1 to 15 | – | – | – |
| COc1cnc(Cl)cc1-c1cc(C)ncc1C(=O)Nc1nc2ncc(C3CCOC3)nc2s1 (single isomer, unassigned) [Example 479, (S or R)-2′-chloro-5′-methoxy-6-methyl-N-(6-(tetrahydrofuran-3-yl)thiazolo[4,5-b]pyrazin-2-yl)-[4,4′-bipyridine]-3-carboxamide] | – | 1 to 15 | – | – | – |
